According to patent US4659734A, “Olinecarboxylic acid derivatives” (Nippon Shinyaku Co., Ltd., priority 1983, dated 1987):

Key:
[1] = system: Staphylococcus aureus Smith; experiment: Mouse intraperitoneal infection, survival after one week; type: in vivo, ddY strain mice; settings: po, 3 × 10^6 per mouse, one dose per os 2 h after infection
Procedure: (§1) ddY--Strain mice (male; body weight 20±1 grams) of SPF were innoculated with the bacteria set forth in Table 2 by administration of a supension of the bacterial in 4% mucin solution into the abdominal cavity. A compound of the invention was given one time per os two hours after the infection, and, from the survival rate after one week. 50% effective doses (ED50) were calculated by the Behrens-Karber method.

Serracia marcescens T-55 = experiment: as above; type: in vivo, ddY strain mice; settings: po; Serracia marcescens T-55, 5 × 10^6 per mouse; one dose per os 2 h after infection
Procedure: as §1

[2] = system: Acimetobacter calcoaceticus; experiment: as above; type: in vivo, ddY strain mice; settings: po, 1 × 10^7 per mouse, one dose per os 2 h after infection
Procedure: as §1

[3] = system: Pseudomonas aeruginosa E-2; experiment: as above; type: in vivo, ddY strain mice; settings: E2, po; Pseudomonas aeruginosa E-2, 2 × 10^5 per mouse; one dose per os 2 h after infection; Behrens-Karber
Procedure: as §1

Proteus mirabilis 181 = experiment: as above; type: in vivo, ddY strain mice; settings: po; Proteus mirabilis 181, 2 × 10^7 per mouse; one dose per os 2 h after infection
Procedure: as §1

[4] = system: Klebsiella pneumoniae K-1966; experiment: as above; type: in vivo, ddY strain mice; settings: K1966, po; Klebsiella pneumoniae K-1966, 3 × 10^3 per mouse; one dose per os 2 h after infection
Procedure: as §1

Escherichia coli KC-14 = experiment: as above; type: in vivo, ddY strain mice; settings: KC14, po; Escherichia coli KC-14, 5 × 10^4 per mouse; one dose per os 2 h after infection
Procedure: as §1

[5] = system: Pseudomonas aeruginosa E-2; experiment: Ascending urinary tract infection; type: in vivo, ICR female mice
Procedure: ICR Female mice (body weight 20±1 grams) of SPE strain were used in the experiments. The mice were not given any water for seventeen hours, then compulsorily urinated, anesthesized by the administration of 60 mg/kg of pentobarbital into the abdominal cavity, then 1.5×10^5 of Pseudomonas aeruginosa E-2 strain were impregnated into the bladder via the urinary tract, and the external urinary meatus was stopped for four hours by a pin clip, whereupon the mice were infected in the ascending urinary tract.
The compound of Example 22b was given once orally, 4 hours after infection, then twice a day, and the administration was continued for three days. On the fourth day, the kidney was isolated, homogenized in a physiological saline solution, and the number of bacteria was calculated on suitable medium such as, for example, Drigalski medium. If the number of bacteria per one gram of kidney was less than […], then the compound was judged as "effective".

## Cc1csc2c(C(=O)O)c(=O)c3cc(F)c(N4CCN(C)CC4)cc3n12 [Example 22b, 7-fluoro-1-methyl-8-(4-methyl-1-piperazinyl)-5-oxo-5H-thiazolo(3,2-a)-quinoline-4-carboxylic acid]
[1]
  ED50: 2.4 mg/kg
Serracia marcescens T-55
  ED50: 5.4 mg/kg
[2]
  ED50: 17.5 mg/kg
[3]
  ED50: 13.1 mg/kg
Proteus mirabilis 181
  ED50: 13 mg/kg
[4]
  ED50: 2.7 mg/kg
Escherichia coli KC-14
  ED50: 1.1 mg/kg
[5]; 3.13 mg/kg oral
  Number Of Mice Where Compound Was Effective/Total Mice Tested: 1/7
[5]; 6.25 mg/kg oral
  Number Of Mice Where Compound Was Effective/Total Mice Tested: 4/7
[5]; 12.5 mg/kg oral
  Number Of Mice Where Compound Was Effective/Total Mice Tested: 4/7
[5]; 25 mg/kg oral
  Number Of Mice Where Compound Was Effective/Total Mice Tested: 6/7
[5]; 50 mg/kg oral
  Number Of Mice Where Compound Was Effective/Total Mice Tested: 7/7
[5]; 100 mg/kg oral, 4 h after infection then twice a day, three days
  Number Of Mice Where Compound Was Effective/Total Mice Tested: 7/7
[5]; Pseudomonas aeruginosa, E2, in Mus musculus, 72 h, ascending urinary tract infection, oral, three days, read-out: 50% Effective Dose
  ED50: 8 mg/kg
